# PubChem BioAssay (NCI)
#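 Test compounds were applied to cells in 96-well plates for 48 hours at 5 doses. Abbreviation: GI50, concentration required for 50% inhibition of growth. TGI is the concentration that stops growth completely.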
# Key:
# Test in all cases: NCI anticancer screen, dose series, 48 h
# T-47D breast = test system: T-47D breast
# HCC-2998 colon = test system: HCC-2998 colon
# HS 578T breast = test system: HS 578T breast
# UACC-62 melanoma = test system: UACC-62 melanoma
# U251 CNS = test system: U251 CNS
# KM12 colon = test system: KM12 colon
# HT29 colon = test system: HT29 colon
# OVCAR-8 ovarian = test system: OVCAR-8 ovarian
# SK-OV-3 ovarian = test system: SK-OV-3 ovarian
# 786-0 renal = test system: 786-0 renal
# HCT-116 colon = test system: HCT-116 colon
# UO-31 renal = test system: UO-31 renal
# SF-539 CNS = test system: SF-539 CNS
# NCI-H522 lung = test system: NCI-H522 lung
# OVCAR-3 ovarian = test system: OVCAR-3 ovarian
# M14 melanoma = test system: M14 melanoma
# K-562 leukemia = test system: K-562 leukemia
# SF-268 CNS = test system: SF-268 CNS
# PC-3 prostate = test system: PC-3 prostate
# SK-MEL-28 melanoma = test system: SK-MEL-28 melanoma
# SK-MEL-5 melanoma = test system: SK-MEL-5 melanoma
# UACC-257 melanoma = test system: UACC-257 melanoma
# CAKI-1 renal = test system: CAKI-1 renal
# A549 NSCLC = test system: A549 NSCLC
# EKVX NSCLC = test system: EKVX NSCLC
# A498 renal = test system: A498 renal
# OVCAR-5 ovarian = test system: OVCAR-5 ovarian
# HOP-62 NSCLC = test system: HOP-62 NSCLC
# IGROV1 ovarian = test system: IGROV1 ovarian
# MDA-MB-435 = test system: MDA-MB-435
# MOLT-4 leukemia = test system: MOLT-4 leukemia
# DU-145 prostate = test system: DU-145 prostate
# HCT-15 colon = test system: HCT-15 colon
# RXF 393 renal = test system: RXF 393 renal
# SF-295 CNS = test system: SF-295 CNS
# TK-10 renal = test system: TK-10 renal
# RPMI-8226 leukemia = test system: RPMI-8226 leukemia
# BT-549 breast = test system: BT-549 breast
# HL-60(TB) leukemia = test system: HL-60(TB) leukemia
# OVCAR-4 ovarian = test system: OVCAR-4 ovarian
# NCI-H460 lung = test system: NCI-H460 lung
# ACHN renal = test system: ACHN renal
# MALME-3M melanoma = test system: MALME-3M melanoma
# SN12C renal = test system: SN12C renal
# NCI-H23 lung = test system: NCI-H23 lung
# NCI/ADR-RES ovarian = test system: NCI/ADR-RES ovarian
# SNB-75 CNS = test system: SNB-75 CNS
# COLO 205 colon = test system: COLO 205 colon
# NCI-H226 lung = test system: NCI-H226 lung
# CCRF-CEM leukemia = test system: CCRF-CEM leukemia
# SNB-19 CNS = test system: SNB-19 CNS
# SR leukemia = test system: SR leukemia
# SK-MEL-2 melanoma = test system: SK-MEL-2 melanoma
compound,measurement,setting,value
Cc1ccc2c(n1)C(=O)C(Cl)=C(Nc1ccc(C(C)C)cc1)C2=O,GI50,T-47D breast,1.18 µM
same,TGI,T-47D breast,3.46 µM
same,GI50,HCC-2998 colon,1.99 µM
same,TGI,HCC-2998 colon,3.65 µM
same,GI50,HS 578T breast,2.07 µM
same,TGI,HS 578T breast,5.96 µM
same,GI50,UACC-62 melanoma,1.83 µM
same,TGI,UACC-62 melanoma,3.77 µM
same,GI50,U251 CNS,1.76 µM
same,TGI,U251 CNS,3.51 µM
same,GI50,KM12 colon,3.25 µM
same,TGI,KM12 colon,14 µM
same,GI50,HT29 colon,2.57 µM
same,TGI,HT29 colon,6.44 µM
same,GI50,OVCAR-8 ovarian,2.59 µM
same,TGI,OVCAR-8 ovarian,9.48 µM
same,GI50,SK-OV-3 ovarian,10.4 µM
same,TGI,SK-OV-3 ovarian,22.3 µM
same,GI50,786-0 renal,2.08 µM
same,TGI,786-0 renal,4.5 µM
same,GI50,HCT-116 colon,1.52 µM
same,TGI,HCT-116 colon,3.41 µM
same,GI50,UO-31 renal,1.23 µM
same,TGI,UO-31 renal,2.6 µM
same,GI50,SF-539 CNS,1.62 µM
same,TGI,SF-539 CNS,3.07 µM
same,GI50,NCI-H522 lung,2.02 µM
same,TGI,NCI-H522 lung,4.58 µM
same,GI50,OVCAR-3 ovarian,1.4 µM
same,TGI,OVCAR-3 ovarian,2.77 µM
same,GI50,M14 melanoma,1.7 µM
same,TGI,M14 melanoma,3.25 µM
same,GI50,K-562 leukemia,0.351 µM
same,TGI,K-562 leukemia,1.68 µM
same,GI50,SF-268 CNS,1.76 µM
same,TGI,SF-268 CNS,3.86 µM
same,GI50,PC-3 prostate,1.28 µM
same,TGI,PC-3 prostate,3.16 µM
same,GI50,SK-MEL-28 melanoma,1.83 µM
same,TGI,SK-MEL-28 melanoma,3.33 µM
same,GI50,SK-MEL-5 melanoma,1.59 µM
same,TGI,SK-MEL-5 melanoma,3 µM
same,GI50,UACC-257 melanoma,1.69 µM
same,TGI,UACC-257 melanoma,3.18 µM
same,GI50,CAKI-1 renal,1.53 µM
same,TGI,CAKI-1 renal,3.15 µM
same,GI50,A549 NSCLC,3.26 µM
same,TGI,A549 NSCLC,12.4 µM
same,GI50,EKVX NSCLC,1.5 µM
same,TGI,EKVX NSCLC,4.18 µM
same,GI50,A498 renal,12.5 µM
same,TGI,A498 renal,25.2 µM
same,GI50,OVCAR-5 ovarian,1.74 µM
same,TGI,OVCAR-5 ovarian,3.53 µM
same,GI50,HOP-62 NSCLC,5.34 µM
same,TGI,HOP-62 NSCLC,20.1 µM
same,GI50,IGROV1 ovarian,1.29 µM
same,TGI,IGROV1 ovarian,2.96 µM
same,GI50,MDA-MB-435,1.93 µM
same,TGI,MDA-MB-435,3.7 µM
same,GI50,MOLT-4 leukemia,2.16 µM
same,TGI,MOLT-4 leukemia,6.36 µM
same,GI50,DU-145 prostate,1.73 µM
same,TGI,DU-145 prostate,3.24 µM
same,GI50,HCT-15 colon,1.39 µM
same,TGI,HCT-15 colon,3.14 µM
same,GI50,RXF 393 renal,1.49 µM
same,TGI,RXF 393 renal,2.85 µM
same,GI50,SF-295 CNS,3.63 µM
same,TGI,SF-295 CNS,13 µM
same,GI50,TK-10 renal,2.57 µM
same,TGI,TK-10 renal,4.13 µM
same,GI50,RPMI-8226 leukemia,1.52 µM
same,TGI,RPMI-8226 leukemia,4.53 µM
same,GI50,BT-549 breast,1.51 µM
same,TGI,BT-549 breast,2.9 µM
same,GI50,HL-60(TB) leukemia,1.44 µM
same,TGI,HL-60(TB) leukemia,3.5 µM
same,GI50,OVCAR-4 ovarian,1.57 µM
same,TGI,OVCAR-4 ovarian,3.15 µM
same,GI50,NCI-H460 lung,3.03 µM
same,TGI,NCI-H460 lung,13.9 µM
same,GI50,ACHN renal,1.66 µM
same,TGI,ACHN renal,3.09 µM
same,GI50,MALME-3M melanoma,1.65 µM
same,TGI,MALME-3M melanoma,3.38 µM
same,GI50,SN12C renal,2.03 µM
same,TGI,SN12C renal,5.38 µM
same,GI50,NCI-H23 lung,1.82 µM
same,TGI,NCI-H23 lung,5.05 µM
same,GI50,NCI/ADR-RES ovarian,2.53 µM
same,TGI,NCI/ADR-RES ovarian,9.2 µM
same,GI50,SNB-75 CNS,1.67 µM
same,TGI,SNB-75 CNS,5.17 µM
same,GI50,COLO 205 colon,1.89 µM
same,TGI,COLO 205 colon,3.97 µM
same,GI50,NCI-H226 lung,1.68 µM
same,TGI,NCI-H226 lung,4.35 µM
same,GI50,CCRF-CEM leukemia,1.9 µM
same,TGI,CCRF-CEM leukemia,5.78 µM
same,GI50,SNB-19 CNS,1.9 µM
same,TGI,SNB-19 CNS,4.57 µM
same,GI50,SR leukemia,0.643 µM
same,TGI,SR leukemia,3.48 µM
same,GI50,SK-MEL-2 melanoma,1.81 µM
same,TGI,SK-MEL-2 melanoma,3.54 µM
